Data taken from patent US4820834A, “Benzodiazepine analogs” (priority 1987, dated 1989).
Read-outs that look alike come from different tables or passages of the source.

Assays:
[1] = target: T1, CCK receptor (brain, cerebral cortex) (Cavia porcellus, UniProt H0VZC5); assay: biochemical; assay type: binding, Male Hartley guinea pigs
T1 construct: Cerebral cortex was dissected and used as a receptor source; from tissue; host or cells: guinea pig cerebral cortex membranes (male Hartley)
T1 sequence (H0VZC5 1-426): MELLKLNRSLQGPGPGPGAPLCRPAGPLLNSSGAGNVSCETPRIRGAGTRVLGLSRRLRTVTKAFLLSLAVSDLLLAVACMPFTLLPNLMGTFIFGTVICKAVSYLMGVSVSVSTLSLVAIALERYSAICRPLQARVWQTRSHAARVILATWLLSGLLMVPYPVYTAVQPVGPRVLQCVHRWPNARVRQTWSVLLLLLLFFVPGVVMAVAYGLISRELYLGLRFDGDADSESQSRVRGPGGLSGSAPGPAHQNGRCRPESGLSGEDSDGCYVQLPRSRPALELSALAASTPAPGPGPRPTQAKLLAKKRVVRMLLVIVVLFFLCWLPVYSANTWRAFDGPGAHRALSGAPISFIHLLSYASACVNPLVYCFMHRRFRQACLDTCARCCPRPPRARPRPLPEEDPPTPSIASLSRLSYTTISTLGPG
Description: 2. CCK Recepto Binding (Brain)
CCK-33 was radiolabeled and the binding was Performed according to the description for the Pancreas method with modifications according to Saito et al., J. Neurochem.
Cerebral cortex was dissected and used as a receptor source. Each gram of fresh guinea pig brain tissue was homogenized in 10 ml of Tris/Trizma buffer with a Brinkman polytron PT-10. The homogenates were centrifuged at 42,000 g for 15 minutes. Pellets were resuspended in Tris Buffer, centrifuged as above and resuspended in 200 volumes of binding assay buffer (10 mM N-2-hydroxyethyl-piperazine-N'-2-ethane sulfonic acid (HEPES), 5 mM MgCl2, 0.25 mg/ml bacitracin, 1 mM ethylene glycol-bis-(β-aminoethylether-N,N'-tetraacetic acid) (EGTA), and 0.4% bovine serum albumin (BSA)). […] All assays were run in duplicate or triplicate. The reaction mixtures were incubated at 25° C. for 2 hours and centrifuged in a Beckman Microfuge (4 minutes) immediately after adding 1 ml of ice-cold incubation buffer. The supernatant was aspirated and discarded, pellets were counted with a Beckman gamma 5000.

[2] = target: T2, Gastrin receptor (gastric glands) (Cavia porcellus, UniProt H0VZC5); assay: Gastrin Receptor Binding in Guinea Pig Gastric Glands; parameters: species or system guinea pig (male Hartley)
T2 construct: The washed guinea pig gastric glands prepared as above were resuspended; from tissue; host or cells: guinea pig gastric mucosal glands (male Hartley)
T2 sequence (H0VZC5 1-426): T1 sequence (H0VZC5 1-426)

[3] = IC50 ^125 I-CCK Brain, guinea pig cerebral cortex, ^125 I-CCK-33, 25° C., 2 hours
[4] = IC50 ^125 I-Gastrin Gastric Glands, 25° C., 30 minutes
[5] = ^125 I-gastrin, 25° C., 30 minutes, read-out: IC50 ^125 I-Gastrin Gastric Glands
[6] = read-out: IC50 ^125 I-CCK Brain; guinea pig cerebral cortex, ^125 I-CCK-33, 25° C., 2 hours
[7] = read-out: IC50 ^125 I-Gastrin Gastric Glands, 25° C., 30 minutes

| SMILES | IC50 [1, 3] | IC50 [2, 4] | other results |
| --- | --- | --- | --- |
| O=C(O)CN1C(=O)C(NC(=O)c2cc3ccccc3[nH]2)N=C(c2ccccc2)c2ccccc21 (racemic) [Example 78, 1-Carboxymethyl-1,3-dihydro-3(RS)-(2-indolearbonyl-amino)-5-phenyl-2H-1,4-benzodiazepin-2-one] | 5.5 µM | 0.65 µM | – |
| CN1C(=O)C(NC(=O)c2ccc(Cl)cc2)N=C(c2ccccc2F)c2ccccc21 (racemic) [Example 80, 1,3-Dihydro-1-methyl-3(RS)-(4-chlorophenylcarbonyl)-amino-5-(2-fluoroohenyl)-2H-1,4-benzodiazeoin-2-one] | 3.4 µM | – | IC50 [2, 5]: 2.9 µM |
| CN1C(=O)C(NC(=O)c2cc3ccccc3[nH]2)N=C(c2ccccc2F)c2ccccc21 (racemic) [Example 81a, 1,3-Dihydro-5-(2-fluorophenyl)-3(RS)-(2-indolecarbonyl-amino)-1-methyl-2H-1,4-benzodiazepin-2-one] | 0.3 µM | – | IC50 [2, 5]: 0.19 µM |
| CN1C(=O)C(NC(=O)c2cc3ccccc3n2C)N=C(c2ccccc2F)c2ccccc21 (racemic) [Example 81b, 1,3-Dihydro-5-(2-fluorophenyl)-1-methyl-3(RS)-[2'-(1-methylindole)carbonylamino]-2H-1,4-benzodiazepin-2-one] | 1 µM | 1.6 µM | – |
| O=C(CCCc1c[nH]c2ccccc12)NC1N=C(c2ccccc2)c2ccccc2NC1=O (racemic) [Example 97, 3(RS)-[4-(3-Indole)butyrylamino]-1,3-dihydro-5-phenyl-2H-1,4-benzodiazepin-2-one] | > 100 µM | 200 µM | – |
| O=C(NCC1CNc2ccccc2C(c2ccccc2F)=N1)OCc1ccccc1 (racemic) [Example 98, 1,3-Dihydro-3(RS)-(benzyloxycarbonyl)aminomethyl-5-(2-fluorophenyl)-2H-1,4-benzodiazepine] | 100 µM | 86 µM | – |
| O=C(NCC1CNc2ccccc2C(c2ccccc2F)=N1)c1ccsc1 (racemic) [Example 99, 1,3-Dihydro-3(RS)-[3'-(thiophene)carbonyl]amino-methyl-5-(2-fluorophenyl)-2H-1,4-benzodiazepine] | 74 µM | 80 µM | – |
| O=C(NCC1CNc2ccccc2C(c2ccccc2F)=N1)c1cc2ccccc2[nH]1 (racemic) [Example 100, 1,3-Dihydro-3(RS)-(2'-indolecarbonyl)aminomethyl-5-(2-fluorophenyl)-2H-1,4-benzodiazepine] | – | – | IC50 [1, 6]: 34 µM; IC50 [2, 7]: 22 µM |
| O=C(NC1N=C(c2ccccc2F)c2ccccc2NC1=O)c1cc2ccccc2[nH]1 (racemic) [Example 105, 1,3-Dihydro-5-(2-fluorophenyl)-3-(RS)-(2-indolecarbonylamino)-2H-1,4-benzodiazeoin-2-one] | 3 µM | 4.6 µM | – |
| O=C(NC1N=C(c2ccccc2F)c2ccccc2NC1=O)c1ccc([N+](=O)[O-])cc1 (racemic) [Example 106, 1,3-Dihydro-3-(RS)-(4-nitrophenlcarbonyl)amino-5-(2-fluorophenyl)-2H-1,4-benzodiazepin-2-one] | > 50 µM | > 10 µM | – |
| O=C(NC1N=C(c2ccccc2F)c2ccccc2NC1=O)c1ccsc1 (racemic) [Example 108, 1,3-Dihydro-5-(2-fluorophenyl)-3-(RS)-(3-thiophenecarbonylamino)-2H-1,4-benzodiazepin-2-one] | > 50 µM | > 10 µM | – |
| O=C(NC1N=C(c2ccccc2)c2ccccc2NC1=O)c1c[nH]c2ccccc12 (racemic) [Example 109, 1,3-Dihydro-3-(RS)-(3-indolecarbonylamino)-5-phenyl-2H-1,4-benzodiazepin-2-one] | 8.4 µM | 18 µM | – |
| O=C(Cc1cccc2sccc12)NC1N=C(c2ccccc2F)c2ccccc2NC1=O (racemic) [Example 110, 1,3-Dihydro-3-(RS)-(4-thianaPhtheneacetyl)amino-5-(2-fluorophenyl)-2H-1,4-benzodiazepin-2-one] | 3.3 µM | 3.9 µM | – |
| O=C(O)CN1C(=O)C(NC(=O)c2cc3ccccc3[nH]2)N=C(c2ccccc2F)c2ccccc21 (racemic) [Example 113, 1-Carboxymethyl-1,3-dihydro-5-(2-fluorophenyl)-3(RS)-(2-indolecarbonylamino)-2H-1,4-benzodiazepin-2-one] | 5.6 µM | 0.39 µM | – |
| O=C(NC1N=C(c2ccccc2F)c2ccccc2NC1=O)c1cc2cc(F)ccc2[nH]1 (racemic) [Example 114, 1,3-Dihydro-3-(RS)-(5-fluoroindole-2-carbonylamino)-5-(2-fluorophenyl)-2H-1,4-benzodiazepin-2-one] | 12 µM | 4.8 µM | – |
| O=C(NC1N=C(c2ccccc2F)c2ccccc2NC1=O)c1cc2cc(Cl)ccc2[nH]1 (racemic) [Example 118, 1,3-Dihydro-3-(RS)-(5-Chloroindole-2-carbonylamino)-5-(2-fluorophenyl)-2H-1,4-benzodiazepin-2-one] | 38 µM | > 10 µM | – |
| CN(C(=O)c1cc2ccccc2[nH]1)C1N=C(c2ccccc2)c2ccccc2NC1=O (racemic) [Example 119, 3-(RS)-[N-(2-indolecarbonyl)-N-methylamino]-1,3-dihydro-5-phenyl-2H-1,4-benzodiazepin-2-one] | 33 µM | > 10 µM | – |
| O=C(NC1N=C(c2ccccc2F)c2ccccc2NC1=O)c1cc2cc(Br)ccc2[nH]1 (racemic) [Example 120, 1,3-Dihydro-3-(RS)-(5-Bromoindole-2-carbonylamino)-5-(2-fluorophenyl)-2H-1,4-benzodiazepin-2-one] | 50 µM | > 10 µM | – |
| O=C(C=Cc1ccccc1)NC1N=C(c2ccccc2F)c2ccccc2NC1=O (racemic) [Example 121, 3-(RS)-Cinnamoylamino-1,3-dihydro-5-(2-fluorophenyl)-2H-1,4-benzodiazepin-2-one] | – | – | IC50 ([1]; guinea pig cerebral cortex, ^125 I-CCK-33, 25° C., 2 hours; read-out: IC50 ^125 I-CCK Brain): 5.5 µM; IC50 [2, 5]: 3.8 µM |
| O=C(NC1N=C(c2ccccc2F)c2ccccc2NC1=O)c1cc2cc(O)ccc2[nH]1 (racemic) [Example 122, 1,3-Dihydro-3-(RS)-(5-hydroxy-2-indolylcarbonyl)amino-5-(2-fluorophenyl)-2H-1,4-benzodiazepin-2-one] | 16 µM | 29 µM | – |
| COc1ccc2[nH]c(C(=O)NC3N=C(c4ccccc4F)c4ccccc4NC3=O)cc2c1 (racemic) [Example 126, 1,3-Dihydro-3-(RS)-(5-methoxyindole-2-carbonylamino)-5-(2-fluorophenyl)-2H-1,4-benzodiazepin-2-one] | 29 µM | > 10 µM | – |
| Cn1c(C(=O)NC2N=C(c3ccccc3F)c3ccccc3NC2=O)cc2ccccc21 (racemic) [Example 127, 1,3-Dihydro-3-(RS)-(1-methylindole-2-carbonylamino)-5-(2-fluorophenyl)-2H-1,4-benzodiazepine-2-one] | 7 µM | 6.3 µM | – |
| O=C(NC1N=C(c2ccccc2F)c2ccccc2NC1=O)c1cc2ccccc2o1 (racemic) [Example 128, 1,3-Dihydro-5-(2-fluorophenyl)-3-(RS)-(2-benzofurancarbonylamino)-2H-1,4-benzodiazepin-2-one] | – | – | IC50 [1, 6]: 32 µM; IC50 [2, 7]: 11 µM |
| CCOC(=O)CN1C(=O)C(NC(=O)c2ccc(Cl)cc2)N=C(c2ccccc2F)c2ccccc21 (racemic) [Example 129, 1-Ethoxycarbonylmethyl-1,3-dihydro-3(RS)-(4-chloro-phenylcarbonyl)amino-5-(2-fluorophenyl)-2H-1,4-benzodiazepin-2-one] | 1.9 µM | 0.69 µM | – |
| O=C(NC1N=C(c2ccccc2)c2ccccc2NC1=O)c1ccc(Cl)cc1 (racemic) [Example 130, 1,3-Dihydro-3-(RS)-(4-chlorophenylcarbonyl)amino-5-phenyl-2H-1,4-benzodiazepin-2-one] | > 40 µM | 8.2 µM | – |
| O=C(O)CN1C(=O)C(NC(=O)c2ccc(Cl)cc2)N=C(c2ccccc2F)c2ccccc21 (racemic) [Example 132, 1-Carboxymethyl-1,3-dihydro-3-(RS)-(4-chlorophenyl-carbonyl)amino-5-(2-fluorophenyl)-2H-1,4-benzodiazepin-2-one] | > 100 µM | 8.2 µM | – |
